Laboratory results reported in publication PMC7322745 (Journal of Ginseng Research, 2019).

Format: in vivo, human
Conditions: for Tmax: both, human, serum, oral, 3 g, mean Tmax, all participants (RG and FRG groups together)

Row | SMILES | Tmax | AUC in the FRG group relative to the RG group (mean AUC, FRG group vs RG group)
1 | CC(C)=CCC[C@](C)(O[C@@H]1O[C@H](CO)[C@@H](O)[C@H](O)[C@H]1O)[C@H]1CC[C@]2(C)[C@@H]1[C@H](O)C[C@@H]1[C@@]3(C)CC[C@H](O[C@@H]4O[C@H](CO)[C@@H](O)[C@H](O)[C@H]4O[C@@H]4O[C@H](CO)[C@@H](O)[C@H](O)[C@H]4O)C(C)(C)[C@@H]3CC[C@]12C [Rd, ginsenoside Rd] | 9.41 ± 4.42 h | –
2 | CC(C)=CCC[C@](C)(O[C@@H]1O[C@H](CO)[C@@H](O)[C@H](O)[C@H]1O)[C@H]1CC[C@]2(C)[C@@H]1[C@H](O)C[C@@H]1[C@@]3(C)CC[C@H](O[C@@H]4O[C@H](CO)[C@@H](O)[C@H](O)[C@H]4O)C(C)(C)[C@@H]3CC[C@]12C [F2, ginsenoside F2] | 9.32 ± 3.38 h | more than six
